Reference: paper PMC3743129 (ACS medicinal chemistry letters, 2013)
Marks after values point to notes of the source that are not given here.

Key:
[1] = system: a number of different viruses; details: cited from earlier work
in vitro = in vitro ADME
[2] = type: in vitro ADME
MeV-Edm = assay: microbe, parasite or virus in culture; type: cell-based; details: Measles morbillivirus, read-out: EC50 against MeV strain Edmonston

Question: For `COc1ccc(-n2c(SC(C)C(=O)Nc3ccc(C)cc3Cl)nc3ccccc32)cc1` (stereo not drawn) [Compound 1], which “activity against a number of different viruses in cell culture” value [1] is on record?
Answer: low nanomolar activity

Question: Which “metabolite peak in LC-MS, % of total area” value (in vitro; human, 20 min, 100 μM) does the source give for `Cn1c(S(=O)(=O)Cc2ccccc2)nc(-c2ccccc2)c1-c1ccccc1` [Compound 13b] here?
Answer: 91%

Question: What about the half-life (in vitro; human, s9) of the same compound?
Answer: 2 to 12 min

Question: What about the “S9 stability T1/2 human” value (in vitro; s9) of the same compound?
Answer: 2-12^b min

Question: What about the “S9 stability T1/2 hamster” value [2] of the same compound?
Answer: <2.5^b min

Question: With `C#CCn1c([S+](=O)([O-])Cc2ccc(F)cc2)nc(-c2ccccc2)c1-c1ccccc1` [Compound 3] as the compound, how does the “S9 stability T1/2 hamster” value [2] read?
Answer: <2.5 min

Question: With `O=S(=O)(Cc1ccccc1)c1nc(-c2ccccc2)c(-c2ccccc2)[nH]1` [Compound 13a] as the compound, how does the “S9 stability T1/2 hamster” value [2] read?
Answer: <2.5 min

Question: Which EC50 (MeV-Edm) does the source give for `CN(Cc1nc(-c2ccccc2)c(-c2ccccc2)n1C)c1ccccc1` [Compound 28a] here?
Answer: 0.81 µM

Question: With `Cn1c(S(=O)(=O)Cc2ccc(F)cc2)nc(-c2ccc(F)cc2)c1-c1ccc(F)cc1` [Compound 13c] as the compound, how does the “S9 stability T1/2 hamster” value [2] read?
Answer: <2.5^b min
